Key:
[1] = target: T1, Rat Striatal Nicotinic Receptors ([^3H]NIC binding sites; α4β2) (Rattus norvegicus, UniProt P09483+P12390); assay: Inhibition of [^3H]NIC binding; details: 1 h; 100 nM analog; 3 nM [^3H]NIC; nonspecific 10 μM cytisine; rat brain membranes
T1 construct: Whole brain, excluding cortex and cerebellum, was homogenized in 20 vol of ice-cold buffer; from tissue; host or cells: rat brain membranes (whole brain excluding cortex and cerebellum)
Experimental: (§1) Homogenate was centrifuged (25,000 g, 15 min, 4° C). Pellets were resuspended in 20 vol buffer and incubated at 37° C., for 10 min, cooled to 4° C. and centrifuged (25,000 g, 15 min, 4° C.). Pellets were resuspended and centrifuged using the same conditions. […] Upon use, final pellets were resuspended in 20 vol assay buffer. Samples (250 μl) contained 100-140 μg of membrane protein, 3 nM [^3H]-S-nicotine or 3 nM [^3H]-methyllycaconitine (MLA), and bis-quaternary ammonium analog (100 nM) in assay buffer containing 50 mM Tris. Control was in the absence of analog. In [^3H]-S-nicotine and [^3H]-methyllycaconitine binding assays, nonspecific binding was determined in the presence of 10 μM cytisine and 10 μM S-nicotine, respectively. Incubations proceeded for 60 min at room temperature using 96-well plates and were terminated by harvesting on Unifilter-96 GF/B filter plates presoaked in 0.5% polyethylenimine, using a Packard FilterMate harvester. After washing 5 times with 350 μl ice-cold assay buffer, filter plates were dried (60 min, 4° C.), bottom-sealed, and filled with Packard's MicroScint 20 cocktail (40 μl/well). After 60 min, filter plates were top-sealed, and radioactivity determined using a Packard TopCount. Protein concentrations were determined using the Bradford dye-binding procedure bovine serum albumin as the standard.
Specific binding in the [^3H]NIC binding assay is calculated as the difference between the total binding of 3 nM [^3H]NIC and nonspecific binding in the presence of 10 μM cold cytisine. […] Analog-induced inhibition of S-nicotine-evoked [^3H]DA release is calculated as a percent of that in the absence of the bis-quaternary ammonium analog.

[2] = target: T2, Rat Striatal Nicotinic Receptors ([^3H]MLA binding sites; α7) (Rattus norvegicus, UniProt Q05941); assay: Inhibition of [^3H]MLA (methyllycaconitine) binding; details: 100 nM analog; [^3H]MLA; nonspecific S-nicotine; rat brain membranes; read-out: [^3H]MLA binding, % inhibition
T2 construct: Whole brain, excluding cortex and cerebellum, was homogenized in 20 vol of ice-cold buffer; from tissue; host or cells: rat brain membranes (whole brain excluding cortex and cerebellum)
Experimental: as §1, with “standard. […]” for “standard.”

[3] = test system: nicotinic receptors mediating S-nicotine-evoked [^3H]DA release in rat striatal slices; assay: Inhibition of S-nicotine-evoked [^3H]dopamine release from superfused rat striatal slices; type: cell-based; details: 1 h; 100 nM analog superfused 60 min before NIC 10 μM; rat striatal slices; read-out: [^3H]DA release, % inhibition of S-nicotine-evoked release
Experimental: Rat striatal slices (500 μm thickness, 6-8 mg wet weight) were incubated for 30 minutes in Krebs buffer (118 mM NaCl, 4.7 mM KCl, 1.2 mM MgCl2, 1.0 mM NaH2PO4, 1.3 mM CaCl2, 11.1 mM glucose, 25 mM NaHCO3, 0.11 mM L-ascorbic acid, and 0.004 mM disodium EDTA; pH 7.4, and saturated with 95% O2/5% CO2) in a metabolic shaker at 34° C. Slices were rinsed with 15 mL of fresh buffer and incubated for an additional 30 minutes in fresh buffer containing 0.1 μM [^3H]dopamine (DA; 6 slices/3 mL). Subsequently, slices were rinsed with 15 mL of fresh buffer and transferred to a glass superfusion chamber. Slices were superfused (1.0 mL/min) for 60 minutes with Krebs buffer containing nomifensine (10 μM) and pargyline (10 μM) and maintained at 34° C., pH 7.4, with continual aeration (95% O2/5% CO2). Two five minute samples (5 mL each) were collected to determine basal outflow of [^3H]DA. The bis-quaternary ammonium analogs were added to the superfusion buffer after the collection of the second sample and remained in the buffer until 12 consecutive five minute samples were collected. Subsequently, S-nicotine (NIC; 10 μM) was added to the buffer and an additional 12 consecutive five minute samples were collected. At the end of the experiment, each slice was solubilized and the [^3H] content of the tissue determined.
Radioactivity in the superfusate and tissue samples was determined by liquid scintillation spectroscopy. Fractional release for tritium collected in each sample was divided by the total tritium present in the tissue at the time of sample collection and was expressed as a percentage of total tritium. Basal [^3H]outflow was calculated from the average of the tritium collected in the two five minute samples just before addition of the quaternary analog. The sum of the increase in collected tritium resulting from either exposure to the test compound or exposure to S-nicotine in the absence and presence of the test compound equaled total [^3H]overflow. [^3H]Overflow was calculated by subtracting the [^3H]outflow during an equivalent period of prestimulation from the values in samples collected during and after drug exposure. Inasmuch as the radiolabelled compounds were not separated and identified, the tritium collected in superfusate is referred to as either [3H]outflow or [^3H]overflow, rather than as [^3H]DA. [^3H]Overflow primarily represents [^3H]DA in the presence of nomifensine and pargyline in the superfusion buffer.
The bis-quaternary ammonium analogs were also evaluated for their ability to inhibit NIC evoked [^3H]DA release. In these experiments, the striatal slices were superfused for 60 minutes with 100 nM concentration of the quaternary analogs prior to NIC (10 μM) exposure. Antagonist activity was evaluated by comparing the NIC-evoked [^3 H]overflow in the absence and presence of the analogs. The relative order of potency of the quaternary analogs for inhibition of NIC-evoked [^3H]DA release from rat striatal slices is illustrated in Table 1.
^aData are % inhibition at 100 nM concentration of the bis-quaternary ammonium analogs for at least 1-3 independent experiments; with the exception of when a Ki value in μM is provided, in which case a full concentration effect was evaluated. Specific binding in the [^3H]NIC binding assay is calculated as the difference between the total binding of 3 nM [^3H]NIC and nonspecific binding in the presence of 10 μM cold cytisine. Specific binding for the [^3H]MLA binding assay is calculated as the difference between the total binding of […] [^3H]MLA to the receptors alone and its nonspecific binding in the presence of […] cold S-nicotine. Analog-induced inhibition of S-nicotine-evoked [^3H]DA release is calculated as a percent of that in the absence of the bis-quaternary ammonium analog.

T1 sequence (P09483 31-630): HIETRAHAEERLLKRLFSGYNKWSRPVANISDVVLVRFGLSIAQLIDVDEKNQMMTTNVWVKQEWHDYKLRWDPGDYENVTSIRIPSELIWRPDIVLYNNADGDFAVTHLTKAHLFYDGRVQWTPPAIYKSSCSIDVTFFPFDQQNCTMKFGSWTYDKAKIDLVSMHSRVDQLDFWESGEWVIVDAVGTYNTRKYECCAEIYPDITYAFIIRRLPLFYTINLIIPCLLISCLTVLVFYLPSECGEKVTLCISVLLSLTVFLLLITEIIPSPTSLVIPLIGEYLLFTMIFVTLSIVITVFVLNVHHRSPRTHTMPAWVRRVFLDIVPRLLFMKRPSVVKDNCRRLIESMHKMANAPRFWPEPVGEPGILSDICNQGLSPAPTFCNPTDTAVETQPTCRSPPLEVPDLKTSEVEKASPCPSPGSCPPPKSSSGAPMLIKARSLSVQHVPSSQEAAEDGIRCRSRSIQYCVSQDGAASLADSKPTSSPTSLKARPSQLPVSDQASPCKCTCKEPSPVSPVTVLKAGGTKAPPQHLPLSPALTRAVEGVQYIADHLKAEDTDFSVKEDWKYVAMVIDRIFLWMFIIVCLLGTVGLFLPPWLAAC
T1 sequence (P12390 25-500): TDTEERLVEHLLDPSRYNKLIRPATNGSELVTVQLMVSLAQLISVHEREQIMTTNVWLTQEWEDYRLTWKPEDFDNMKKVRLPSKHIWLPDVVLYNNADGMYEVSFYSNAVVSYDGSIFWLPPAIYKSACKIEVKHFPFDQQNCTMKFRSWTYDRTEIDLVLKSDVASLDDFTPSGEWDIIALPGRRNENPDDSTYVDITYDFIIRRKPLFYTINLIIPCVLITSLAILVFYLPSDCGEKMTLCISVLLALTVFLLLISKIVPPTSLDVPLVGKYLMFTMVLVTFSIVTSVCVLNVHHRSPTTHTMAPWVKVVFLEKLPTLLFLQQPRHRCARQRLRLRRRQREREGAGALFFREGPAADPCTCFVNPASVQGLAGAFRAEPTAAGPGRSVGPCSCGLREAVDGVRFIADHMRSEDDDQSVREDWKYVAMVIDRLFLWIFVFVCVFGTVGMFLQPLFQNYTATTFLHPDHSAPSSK
T2 sequence (Q05941 23-502): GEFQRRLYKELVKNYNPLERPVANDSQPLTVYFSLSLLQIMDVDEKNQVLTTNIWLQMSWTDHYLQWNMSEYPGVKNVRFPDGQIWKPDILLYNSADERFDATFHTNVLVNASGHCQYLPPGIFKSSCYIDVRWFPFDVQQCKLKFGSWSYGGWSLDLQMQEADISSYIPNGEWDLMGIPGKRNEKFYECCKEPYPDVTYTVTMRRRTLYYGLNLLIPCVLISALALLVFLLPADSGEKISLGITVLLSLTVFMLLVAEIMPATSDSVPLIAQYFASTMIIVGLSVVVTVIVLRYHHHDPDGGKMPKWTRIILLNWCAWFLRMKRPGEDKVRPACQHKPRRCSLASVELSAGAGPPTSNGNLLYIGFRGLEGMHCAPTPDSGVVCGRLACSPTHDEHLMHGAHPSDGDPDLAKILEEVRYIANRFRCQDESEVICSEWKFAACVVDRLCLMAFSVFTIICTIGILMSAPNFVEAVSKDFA

SMILES | inhibition at 0.1 µM [1] [%] | inhibition at 0.1 µM [2] [%] | inhibition at 0.1 µM [3] [%]
Cc1cc[n+](CCOCCOCCOCC[n+]2ccc(C)cc2)cc1 [Example 83, N,N′-{2,2′-[oxybis-(2,1-ethandiyloxy)]bis-ethyl}-bis(4-methylpyridinium)dichloride] | 15 | 7 | 53
Cc1ccc[n+](CCOCCOCCOCC[n+]2cccc(C)c2)c1 [Example 82, N,N′-{2,2′-[oxybis-(2,1-ethandiyloxy)]bis-ethyl}-bis(3-methylpyridinium)dichloride] | 17 | 13 | 58
Cc1cc[n+](CCCC#Cc2cccc(C#CCCC[n+]3ccc(C)c(C)c3)c2)cc1C [Example 52, 1,3-bis-[5-(3,4-dimethyl-pyridinium)-pent-1-ynyl]-benzene dibromide] | 11 | 3.3 | 11
C(#Cc1cccc(C#CCCC[n+]2ccccc2)c1)CCC[n+]1ccccc1 [Example 59, 1,3-bis-(5-pyridinium-pent-1-ynyl)-benzene dibromide] | 3.6 | 4.4 | 12
Cc1cc[n+](CCCC#Cc2ccccc2C#CCCC[n+]2ccc(C)cc2)cc1 [Example 25, 1,2-bis-[5-(4-methyl-pyridinium)-pent-1-ynyl]-benzene dibromide] | 2.5 | 5.4 | 12
C(#Cc1cccc(C#CCCC[n+]2cccc3ccccc32)c1)CCC[n+]1cccc2ccccc21 [Example 54, 1,3-bis-(5-quinolinium-pent-1-ynyl)-benzene dibromide] | 16 | 3.9 | 17
Cc1cc(C)c[n+](CCC#Cc2ccc(C#CCC[n+]3cc(C)cc(C)c3)cc2)c1 [Example 101, N,N′-[(1,4-phenylene)-bis-(4-butynyl)]-bis-(3,5-dimethyl-pyridinium)dibromide] | 0 | 0 | 14
C(#Cc1ccccc1C#CCCC[n+]1cccc2ccccc21)CCC[n+]1cccc2ccccc21 [Example 29, 1,2-bis-(5-quinolinium-pent-1-ynyl)-benzene dibromide] | 0 | 2.3 | 20
Cc1cc[n+](CCCC#Cc2cccc(C#CCCC[n+]3ccc(C)cc3C)c2)c(C)c1 [Example 51, 1,3-bis-[5-(2,4-dimethyl-pyridinium)-pent-1-ynyl]-benzene dibromide] | 7 | 5.5 | 0
Cc1cc[n+](CCCC#Cc2ccccc2C#CCCC[n+]2ccc(C)c(C)c2)cc1C [Example 27, 1,2-bis-[5-(3,4-dimethyl-pyridinium)-pent-1-ynyl]-benzene dibromide] | 4.2 | 4.2 | 23
Cc1cc[n+](CCCC#Cc2cccc(C#CCCC[n+]3ccc(C)cc3)c2)cc1 [Example 50, 1,3-bis-[5-(4-methyl-pyridinium)-pent-1-ynyl]-benzene dibromide] | 10 | 6.4 | 26
c1cc[n+](CCCCCc2ccccc2CCCCC[n+]2ccccc2)cc1 [Example 45, 1,2-bis-(5-pyridinium-pentyl)-benzene dibromide] | 3.3 | 1.9 | 37
c1ccc(CCCCC[n+]2cccc3ccccc32)c(CCCCC[n+]2cccc3ccccc32)c1 [Example 40, 1,2-bis-(5-quinolinium-pentyl)-benzene dibromide] | 0 | 6.3 | 24
Cc1cc[n+](CCCCCc2ccccc2CCCCC[n+]2ccc(C)cc2C)c(C)c1 [Example 37, 1,2-bis-[5-(2,4-dimethyl-pyridinium)-pentyl]-benzene dibromide] | 0 | 4.8 | 20
C(#Cc1cccc(C#CCCC[n+]2cccc(-c3ccccc3)c2)c1)CCC[n+]1cccc(-c2ccccc2)c1 [Example 58, 1,3-bis-[5-(3-phenyl-pyridinium)-pent-1-ynyl]-benzene dibromide] | 3.4 | 11 | 8
OCCCc1ccc[n+](CCCCc2ccc(CCCC[n+]3cccc(CCCO)c3)cc2)c1 [Example 17, N,N′-[1,4-phenylenedi-(4-butanyl)]-bis-[3-(3-hydroxy-propyl)-pyridinium]dibromide] | 0 | 3 | 40
c1cc2c([n+](CCCc3ccc(-c4ccc(CCC[n+]5cccc6c5CCCC6)cc4)cc3)c1)CCCC2 [Example 75, N,N′-[(1,1′-biphenyl)-4,4′-di-(3-propanyl)]-bis-[5,6,7,8-tetrahydroquinolinium]dibromide] | 0.4 | 10 | –
Cc1cc[n+](CCCCc2ccc(CCCC[n+]3ccc(C)c(C)c3)cc2)cc1C [Example 19, N,N′-[1,4-phenylenedi-(4-butanyl)]-bis-(3,4-dimethylpyridinium)dibromide] | 0 | 0 | –

Reference: patent publication US8178678B2, “Bis-quaternary ammonium salts and methods for modulating neuronal nicotinic acetylcholine receptors” (University of Kentucky Research Foundation, priority 2006, dated 2012)
